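Protocol summary: plate cells (96-well), add compound at 5 concentrations, incubate 48 h, interpolate endpoints linearly. TGI denotes the concentration required for complete inhibition of growth.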
Columns and labels:
Test in all cases: growth of human tumour cells (NCI), 48 h
SK-OV-3 ovarian = tested on: SK-OV-3 ovarian
OVCAR-4 ovarian = tested on: OVCAR-4 ovarian
COLO 205 colon = tested on: COLO 205 colon
SF-268 CNS = tested on: SF-268 CNS
SK-MEL-5 melanoma = tested on: SK-MEL-5 melanoma
MDA-N = tested on: MDA-N
HCT-116 colon = tested on: HCT-116 colon
RPMI-8226 leukemia = tested on: RPMI-8226 leukemia
SN12C renal = tested on: SN12C renal
BT-549 breast = tested on: BT-549 breast
MCF7 breast = tested on: MCF7 breast
SK-MEL-2 melanoma = tested on: SK-MEL-2 melanoma
NCI-H226 lung = tested on: NCI-H226 lung
RXF 393 renal = tested on: RXF 393 renal
U251 CNS = tested on: U251 CNS
T-47D breast = tested on: T-47D breast
MDA-MB-231 breast = tested on: MDA-MB-231 breast
SF-295 CNS = tested on: SF-295 CNS
OVCAR-5 ovarian = tested on: OVCAR-5 ovarian
EKVX NSCLC = tested on: EKVX NSCLC
HS 578T breast = tested on: HS 578T breast
HCT-15 colon = tested on: HCT-15 colon
HOP-92 NSCLC = tested on: HOP-92 NSCLC
NCI-H23 lung = tested on: NCI-H23 lung
ACHN renal = tested on: ACHN renal
NCI-H522 lung = tested on: NCI-H522 lung
A498 renal = tested on: A498 renal
K-562 leukemia = tested on: K-562 leukemia
UACC-257 melanoma = tested on: UACC-257 melanoma
M14 melanoma = tested on: M14 melanoma
IGROV1 ovarian = tested on: IGROV1 ovarian
HOP-62 NSCLC = tested on: HOP-62 NSCLC
MALME-3M melanoma = tested on: MALME-3M melanoma
MOLT-4 leukemia = tested on: MOLT-4 leukemia
KM12 colon = tested on: KM12 colon
786-0 renal = tested on: 786-0 renal
SR leukemia = tested on: SR leukemia
A549 NSCLC = tested on: A549 NSCLC
CCRF-CEM leukemia = tested on: CCRF-CEM leukemia
SK-MEL-28 melanoma = tested on: SK-MEL-28 melanoma
PC-3 prostate = tested on: PC-3 prostate
SNB-19 CNS = tested on: SNB-19 CNS
HT29 colon = tested on: HT29 colon
NCI-H460 lung = tested on: NCI-H460 lung
NCI/ADR-RES ovarian = tested on: NCI/ADR-RES ovarian
MDA-MB-435 = tested on: MDA-MB-435
UACC-62 melanoma = tested on: UACC-62 melanoma
HCC-2998 colon = tested on: HCC-2998 colon
OVCAR-3 ovarian = tested on: OVCAR-3 ovarian
DU-145 prostate = tested on: DU-145 prostate
OVCAR-8 ovarian = tested on: OVCAR-8 ovarian
UO-31 renal = tested on: UO-31 renal
TK-10 renal = tested on: TK-10 renal
SNB-75 CNS = tested on: SNB-75 CNS
SW-620 colon = tested on: SW-620 colon
LOX IMVI melanoma = tested on: LOX IMVI melanoma
CAKI-1 renal = tested on: CAKI-1 renal

Measured: TGI

Cn1c(O)c(C2=Nc3ccccc3C2=O)c2ccccc21
> 100 µM: SK-OV-3 ovarian | OVCAR-4 ovarian | COLO 205 colon | SF-268 CNS | SK-MEL-5 melanoma | MDA-N | HCT-116 colon | RPMI-8226 leukemia | SN12C renal | BT-549 breast | MCF7 breast | SK-MEL-2 melanoma | NCI-H226 lung | RXF 393 renal | U251 CNS | T-47D breast | MDA-MB-231 breast | SF-295 CNS | OVCAR-5 ovarian | EKVX NSCLC | HS 578T breast | HCT-15 colon | HOP-92 NSCLC | NCI-H23 lung | ACHN renal | NCI-H522 lung | A498 renal | K-562 leukemia | UACC-257 melanoma | M14 melanoma | IGROV1 ovarian | HOP-62 NSCLC | MALME-3M melanoma | MOLT-4 leukemia | KM12 colon | 786-0 renal | SR leukemia | A549 NSCLC | CCRF-CEM leukemia | SK-MEL-28 melanoma | PC-3 prostate | SNB-19 CNS | HT29 colon | NCI-H460 lung | NCI/ADR-RES ovarian | MDA-MB-435 | UACC-62 melanoma | HCC-2998 colon | OVCAR-3 ovarian | DU-145 prostate | OVCAR-8 ovarian | UO-31 renal | TK-10 renal | SNB-75 CNS | SW-620 colon | LOX IMVI melanoma | CAKI-1 renal
